# Reference: publication PMC3274641 (Bioorganic & medicinal chemistry letters, 2011)
# Entries after “also recorded” stand apart in the source; their conditions may differ. Read-outs that look alike come from different tables or passages of the source.
# Tests used:
# Hα4β2 nAChRs [1] = target: T1, Hα4β2 nAChRs (Homo sapiens, UniProt P17787+P43681); settings: scaffolds; previously reported data; cited from earlier work
# Hα4β2 nAChRs [2] = target: T1, Hα4β2 nAChRs; assay: cell-based; format: cell-based; settings: for fold more potent than lead molecule KAB-18: Hα4β2 nAChRs
# Hα3β4 nAChRs [3] = target: T2, Hα3β4 nAChRs (Homo sapiens, UniProt P30926+P32297); assay: Inhibition of Hα3β4 nAChRs by NAMs; format: cell-based; settings: for change in potency on Hα3β4 nAChRs compared to scaffolds (in words): scaffolds KAB-18, KAB-24, COB-4, respectively
# T2 sequence (P32297 32-505): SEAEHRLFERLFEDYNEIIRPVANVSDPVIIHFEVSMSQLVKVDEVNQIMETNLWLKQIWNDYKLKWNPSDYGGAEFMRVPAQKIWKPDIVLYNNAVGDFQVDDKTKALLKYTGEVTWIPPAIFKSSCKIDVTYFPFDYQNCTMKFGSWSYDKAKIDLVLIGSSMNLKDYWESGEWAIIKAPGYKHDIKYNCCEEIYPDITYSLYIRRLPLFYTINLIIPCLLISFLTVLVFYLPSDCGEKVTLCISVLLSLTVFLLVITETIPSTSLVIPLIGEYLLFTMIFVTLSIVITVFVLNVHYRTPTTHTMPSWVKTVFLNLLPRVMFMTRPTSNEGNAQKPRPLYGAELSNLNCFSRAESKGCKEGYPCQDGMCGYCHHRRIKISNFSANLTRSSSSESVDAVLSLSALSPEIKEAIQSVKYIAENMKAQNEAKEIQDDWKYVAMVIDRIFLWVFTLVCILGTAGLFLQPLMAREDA
# T2 sequence (P30926 22-498): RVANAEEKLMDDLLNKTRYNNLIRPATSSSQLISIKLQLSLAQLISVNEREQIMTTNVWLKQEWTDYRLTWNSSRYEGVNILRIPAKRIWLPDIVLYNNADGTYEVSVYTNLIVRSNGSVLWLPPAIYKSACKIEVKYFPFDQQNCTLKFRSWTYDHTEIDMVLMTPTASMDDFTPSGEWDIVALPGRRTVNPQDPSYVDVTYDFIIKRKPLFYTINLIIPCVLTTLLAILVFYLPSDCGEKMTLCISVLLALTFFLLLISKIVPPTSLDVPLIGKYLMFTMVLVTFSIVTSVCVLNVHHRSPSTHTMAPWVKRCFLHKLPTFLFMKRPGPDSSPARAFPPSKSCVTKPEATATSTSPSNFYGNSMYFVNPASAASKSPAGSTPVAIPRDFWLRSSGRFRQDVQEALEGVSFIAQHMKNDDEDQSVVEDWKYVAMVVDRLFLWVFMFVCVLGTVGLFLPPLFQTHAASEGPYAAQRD
# Hα3β4 nAChRs [4] = target: T2, Hα3β4 nAChRs; settings: scaffolds; previously reported data; cited from earlier work
# [5] = at the 1 year mark; agonist-antagonist therapy in combination with the nicotine patch; cited from earlier work
# T1 sequence (P43681 29-627 limits assumed): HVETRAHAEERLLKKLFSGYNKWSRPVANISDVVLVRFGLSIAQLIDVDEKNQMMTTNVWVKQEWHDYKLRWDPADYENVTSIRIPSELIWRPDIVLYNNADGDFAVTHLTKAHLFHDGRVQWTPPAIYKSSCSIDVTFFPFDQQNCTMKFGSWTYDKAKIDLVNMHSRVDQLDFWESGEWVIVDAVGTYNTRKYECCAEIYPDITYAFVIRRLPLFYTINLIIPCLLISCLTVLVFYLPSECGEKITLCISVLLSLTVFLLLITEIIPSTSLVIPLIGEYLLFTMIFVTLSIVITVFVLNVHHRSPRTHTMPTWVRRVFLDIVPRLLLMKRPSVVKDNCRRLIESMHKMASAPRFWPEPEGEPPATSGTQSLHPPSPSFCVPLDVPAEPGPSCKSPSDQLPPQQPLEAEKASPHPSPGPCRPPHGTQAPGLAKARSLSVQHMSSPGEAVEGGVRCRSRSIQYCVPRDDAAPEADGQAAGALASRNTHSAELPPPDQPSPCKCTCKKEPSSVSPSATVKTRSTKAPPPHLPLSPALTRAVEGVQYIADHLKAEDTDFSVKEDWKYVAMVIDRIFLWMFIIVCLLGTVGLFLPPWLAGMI
# T1 sequence (P17787 26-502): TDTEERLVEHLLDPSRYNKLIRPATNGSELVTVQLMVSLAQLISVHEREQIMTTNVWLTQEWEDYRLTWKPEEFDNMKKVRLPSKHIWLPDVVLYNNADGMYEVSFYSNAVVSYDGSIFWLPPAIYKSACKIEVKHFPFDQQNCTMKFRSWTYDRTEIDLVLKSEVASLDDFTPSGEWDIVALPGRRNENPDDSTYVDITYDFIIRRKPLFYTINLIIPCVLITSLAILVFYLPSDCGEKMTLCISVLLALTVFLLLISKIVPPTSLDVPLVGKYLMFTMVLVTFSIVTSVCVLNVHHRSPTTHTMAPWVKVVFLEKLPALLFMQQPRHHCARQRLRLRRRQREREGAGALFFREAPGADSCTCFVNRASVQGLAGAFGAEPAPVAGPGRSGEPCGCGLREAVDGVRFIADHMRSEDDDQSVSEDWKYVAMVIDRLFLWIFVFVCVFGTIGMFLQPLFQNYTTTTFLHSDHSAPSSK
smiles,measurement,setting,value
O=C(OCC1CCCN(CCCc2ccccc2)C1)c1ccccc1-c1ccccc1 (centres unmarked) [KAB-18],"nH, Hill coefficient, Hα4β2 nAChRs",Hα4β2 nAChRs [1],−1.4
O=C(Nc1cccc2ccccc12)c1ccccc1-c1ccccc1 [COB-175],"nH, Hill coefficient, Hα4β2 nAChRs",Hα4β2 nAChRs [2]; COB series,−0.8
same,fold preference for Hα4β2 nAChRs,Hα4β2 nAChRs [2]; over Hα3β4 nAChRs,2 fold
same,"nH, Hill coefficient, Hα3β4 nAChRs",Hα3β4 nAChRs [3]; COB series,−1.2
O=C(OC1CCCN(CCCc2ccccc2)C1)c1ccccc1-c1ccccc1 (centres unmarked) [DDR-14],"nH, Hill coefficient, Hα3β4 nAChRs",Hα3β4 nAChRs [4],−1.4
same,"nH, Hill coefficient, Hα4β2 nAChRs",Hα4β2 nAChRs [1],−1.6
O=C(NCc1cccc2ccccc12)c1ccccc1-c1ccccc1 [COB-172],selectivity for Hα4β2 nAChRs over Hα3β4 nAChRs (in words),Hα4β2 nAChRs [2],maintained selectivity for Hα4β2 nAChRs
same,"nH, Hill coefficient, Hα4β2 nAChRs",Hα4β2 nAChRs [2]; COB series,−0.7
same,change in potency on Hα4β2 nAChRs (in words),Hα4β2 nAChRs [2]; compared to lead molecule KAB-18,no change in potency; also recorded: maintained potency
same,"nH, Hill coefficient, Hα3β4 nAChRs",Hα3β4 nAChRs [3]; COB series,−0.4
O=C(OCC1CCCN(CCCc2ccccc2)C1)c1ccccc1C(F)(F)F (centres unmarked) [KAB-24],"nH, Hill coefficient, Hα3β4 nAChRs",Hα3β4 nAChRs [4],−0.8
same,"nH, Hill coefficient, Hα4β2 nAChRs",Hα4β2 nAChRs [1],−0.8
O=C(NCc1ccccc1)c1ccccc1-c1ccccc1 [COB-170],selectivity for Hα4β2 nAChRs over Hα3β4 nAChRs (in words),Hα4β2 nAChRs [2],nonselective
same,"nH, Hill coefficient, Hα4β2 nAChRs",Hα4β2 nAChRs [2]; COB series,−1.1
same,fold more potent than lead molecule KAB-18,Hα4β2 nAChRs [2],2 fold
same,IC50,Hα3β4 nAChRs [3],8.5 µM
same,"nH, Hill coefficient, Hα3β4 nAChRs",Hα3β4 nAChRs [3]; COB series,−1.8
O=C(Nc1ccncn1)c1ccccc1-c1ccccc1 [COB-174],selectivity for Hα4β2 nAChRs over Hα3β4 nAChRs (in words),Hα4β2 nAChRs [2],nonselective
same,"nH, Hill coefficient, Hα4β2 nAChRs",Hα4β2 nAChRs [2]; COB series,−1.5
same,"nH, Hill coefficient, Hα3β4 nAChRs",Hα3β4 nAChRs [3]; COB series,−0.9
O=C(Nc1ccccn1)c1ccccc1-c1ccccc1 [COB-173],selectivity for Hα4β2 nAChRs over Hα3β4 nAChRs (in words),Hα4β2 nAChRs [2],nonselective
same,"nH, Hill coefficient, Hα4β2 nAChRs",Hα4β2 nAChRs [2]; COB series,−1.0
same,"nH, Hill coefficient, Hα3β4 nAChRs",Hα3β4 nAChRs [3]; COB series,−0.9
O=C(OCC1CCN(C(=O)CCc2ccccc2)CC1)c1ccccc1-c1ccccc1 [IMB-135],"nH, Hill coefficient, Hα3β4 nAChRs",Hα3β4 nAChRs [3]; IMB series,−1.5
same,change in potency on Hα3β4 nAChRs compared to scaffolds (in words),Hα3β4 nAChRs [3],no change in potency
O=C(OCC1CCCN(C(=O)CCc2ccccc2)C1)c1ccccc1C(F)(F)F (centres unmarked) [IMB-134],"nH, Hill coefficient, Hα4β2 nAChRs",Hα4β2 nAChRs [2]; IMB series,−1.5
same,"nH, Hill coefficient, Hα3β4 nAChRs",Hα3β4 nAChRs [3]; IMB series,−2.1
same,change in potency on Hα3β4 nAChRs compared to scaffolds (in words),Hα3β4 nAChRs [3],no change in potency
O=C(Nc1ccccc1)c1ccccc1-c1ccccc1 [COB-171],selectivity for Hα4β2 nAChRs over Hα3β4 nAChRs (in words),Hα4β2 nAChRs [2],nonselective
same,"nH, Hill coefficient, Hα4β2 nAChRs",Hα4β2 nAChRs [2]; COB series,−1.3
same,fold more potent than lead molecule KAB-18,Hα4β2 nAChRs [2],2 fold
same,"nH, Hill coefficient, Hα3β4 nAChRs",Hα3β4 nAChRs [3]; COB series,−2.2
CNC1(C)C2CCC(C2)C1(C)C (centres unmarked) [Mecamylamine],abstinence,[5],40%
O=C(OCC1CCN(CCCc2ccccc2)CC1)c1ccccc1-c1ccccc1 [COB-4],"nH, Hill coefficient, Hα3β4 nAChRs",Hα3β4 nAChRs [4],−1.0
same,"nH, Hill coefficient, Hα4β2 nAChRs",Hα4β2 nAChRs [1],−0.8
O=C(OCC1CCCN(CCCc2ccccc2)C1)c1ccccc1-c1cccc2ccccc12 (centres unmarked) [FFB-1],Obs. [SI] QSSR (Hα4β2/Hα3β4),"Hα4β2 nAChRs [2]; training set, selectivity Hα4β2 vs Hα3β4",1.29
same,IC50,Hα3β4 nAChRs [3],178 µM
O=C(OC1CCCN(C(=O)CCc2ccccc2)C1)c1ccccc1-c1ccccc1 (centres unmarked) [IMB-132],IC50,Hα4β2 nAChRs [2],2.7 µM
same,"nH, Hill coefficient, Hα4β2 nAChRs",Hα4β2 nAChRs [2]; IMB series,−1.6
same,"nH, Hill coefficient, Hα3β4 nAChRs",Hα3β4 nAChRs [3]; IMB series,−1.6
same,fold decrease in potency on Hα3β4 nAChRs compared to scaffold molecule,Hα3β4 nAChRs [3]; compared to DDR-14,2 fold
